Measurements: ChEMBL document CHEMBL1687939 (J Med Chem, 2011)
Active and inactive are the calls of the source. No cut-off for these calls is given here.

Legend:
Carbonic anhydrase 9 = Carbonic anhydrase 9 (Homo sapiens, UniProt Q16790)
Description: Inhibition of tumor-associated human carbonic anhydrase 9 preincubated for 15 min by CO2 hydration assay

Carbonic anhydrase 1 = Carbonic anhydrase 1 (Homo sapiens, UniProt P00915)
Description: Inhibition of human cytosolic carbonic anhydrase 1 preincubated for 15 min by CO2 hydration assay

Carbonic anhydrase 12 = Carbonic anhydrase 12 (Homo sapiens, UniProt O43570)
Description: Inhibition of tumor-associated human carbonic anhydrase 12 preincubated for 15 min by CO2 hydration assay

Mus musculus [1] = test: Toxicity in BALB/c mouse assessed as body weight loss at 15 to 30 mg/kg, ip qd for 5 days; assay type: organism-based; parameters: dose 15-30 mg/kg, route intraperitoneal; conditions: in vivo, 120 h
4T1 [2] = test: Antimetastatic activity against mouse 4T1 cells expressing luciferase xenografted in BALB/c mouse assessed as reduction in metastasic burden in lungs at 15 to 30 mg/kg, ip qd administered 24 hrs after challenge for 5 days measured 24 hrs post last dose by bioluminescent technique relative to control; assay type: functional, organism-based
4T1 [3] = test: Antimetastatic activity against mouse 4T1 cells expressing luciferase xenografted in BALB/c mouse assessed as limiting colonization of the cells in the lungs at 15 to 45 mg/kg, ip administered as 3 doses on alternate days measured 24 hrs post last dose by bioluminescent technique relative to control; assay type: functional, organism-based
Mus musculus [4] = test: Toxicity in BALB/c mouse assessed as body weight loss at 15 to 45 mg/kg, ip qd administered as 3 doses on alternate days; assay type: organism-based; parameters: dose 15-45 mg/kg, route intraperitoneal; conditions: in vivo

Chain of Carbonic anhydrase 12 (O43570 whole entry): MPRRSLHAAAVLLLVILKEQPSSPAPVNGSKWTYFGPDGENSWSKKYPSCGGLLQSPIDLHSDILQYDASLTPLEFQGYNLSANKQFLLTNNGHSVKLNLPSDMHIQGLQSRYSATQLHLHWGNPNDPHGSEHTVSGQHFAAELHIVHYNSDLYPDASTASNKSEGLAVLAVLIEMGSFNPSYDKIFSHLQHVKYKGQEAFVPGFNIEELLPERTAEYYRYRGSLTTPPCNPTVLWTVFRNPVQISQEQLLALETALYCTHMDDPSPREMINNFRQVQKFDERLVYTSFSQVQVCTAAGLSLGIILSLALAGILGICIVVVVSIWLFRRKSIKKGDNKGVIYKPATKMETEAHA
Chain of Carbonic anhydrase 1 (P00915 whole entry): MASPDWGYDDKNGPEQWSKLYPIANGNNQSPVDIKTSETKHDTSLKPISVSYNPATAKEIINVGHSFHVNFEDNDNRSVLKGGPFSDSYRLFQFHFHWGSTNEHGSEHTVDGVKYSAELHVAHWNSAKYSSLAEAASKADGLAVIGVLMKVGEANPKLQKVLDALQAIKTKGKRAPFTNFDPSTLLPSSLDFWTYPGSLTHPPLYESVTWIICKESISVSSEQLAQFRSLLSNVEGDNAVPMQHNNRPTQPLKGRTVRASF

Row | SMILES | Ki (Carbonic anhydrase 9) [nM] | Ki (Carbonic anhydrase 12) [nM] | further results
1 | COc1ccccc1NC(=O)Nc1ccc(S(N)(=O)=O)cc1 | 465 | 61.2 | Ki (Carbonic anhydrase 1): 92 nM
2 | NS(=O)(=O)c1ccc(NC(=O)Nc2ccc(Oc3ccccc3)cc2)cc1 | 69.1 | 7.1 | Ki (Carbonic anhydrase 1): 604 nM
3 | NS(=O)(=O)c1ccc(NC(=O)Nc2ccc(I)cc2)cc1 | 24.5 | 4.3 | –
4 | CCCCc1ccc(NC(=O)Nc2ccc(S(N)(=O)=O)cc2)cc1 | 376 | 28.5 | –
5 | NS(=O)(=O)c1ccc(NC(=O)Nc2ccc(Br)cc2)cc1 | 69.3 | 7.9 | –
6 | CC(C)c1ccc(NC(=O)Nc2ccc(S(N)(=O)=O)cc2)cc1 | 541 | 49.7 | –
7 | N#Cc1ccccc1NC(=O)Nc1ccc(S(N)(=O)=O)cc1 | 0.3 | 4.6 | Ki (Carbonic anhydrase 1): 10.9 nM
8 | CC(C)c1ccccc1NC(=O)Nc1ccc(S(N)(=O)=O)cc1 | 0.5 | 4.2 | –
9 | CCCCOc1ccc(NC(=O)Nc2ccc(S(N)(=O)=O)cc2)cc1 | 0.8 | 2.5 | –
10 | CC(=O)c1ccc(NC(=O)Nc2ccc(S(N)(=O)=O)cc2)cc1 | – | 4.6 | Activity (Mus musculus [1]): Non-toxic; Activity (4T1 [2]): inactive
11 | NS(=O)(=O)c1ccc(NC(=O)Nc2cccc([N+](=O)[O-])c2)cc1 | 0.9 | – | Activity (4T1 [3]): Dose-dependent effect; Activity (Mus musculus [4]): Non-toxic
12 | COc1ccc(NC(=O)Nc2ccc(S(N)(=O)=O)cc2)c(C)c1 | – | 6 | –
13 | NS(=O)(=O)c1ccc(NC(=O)Nc2ccc(Cl)cc2)cc1 | – | 5.3 | –
14 | N#Cc1ccc(NC(=O)Nc2ccc(S(N)(=O)=O)cc2)cc1 | 6 | 6.5 | Ki (Carbonic anhydrase 1): 57 nM
